Assay results from paper PMC7660650, “Chemical Starting Matter for HNF4α Ligand Discovery and Chemogenomics” (International Journal of Molecular Sciences, 2020).
Where “and” joins values, the source holds several entries; their conditions need not be identical. Equal values may be shown once. Entries after “also recorded” stand apart in the source; their conditions may differ.

How the values were obtained:
Gal4–VP16 = test: Gal4-VP16 control experiment (reporter gene assay, HEK293T cells); type: cell-based; settings: 50 µM; mean ± SD
Procedure: The frame and sequence of the fusion plasmid were verified by sequencing. pFR-Luc (Stratagene) was used as reporter plasmid and pRL-SV40 (Promega, Madison, WI, USA) served for normalization of transfection efficiency and cell growth. The Gal4-VP16 [25] expressed from plasmid pECE-SV40-Gal4-VP16 [26] […] Assay Procedure: HEK293T cells were grown in Dulbecco’s Modified Eagle Medium (DMEM) high glucose, supplemented with 10% Fetal Bovine Serum (FCS), sodium pyruvate (1 mM), penicillin (100 U/mL), and streptomycin (100 μg/mL) at 37 °C and 5% CO2. The day before transfection, HEK293T cells were seeded in 96-well plates (3.0·10^4 cells/well). Before transfection, the medium was changed to Opti-MEM without supplements. Transient transfection was carried out using Lipofectamine LTX reagent (Invitrogen, Carlsbad, CA, USA) according to the manufacturer’s protocol with pFR-Luc (Stratagene), pRL-SV40 (Promega), and the pFA-CMV-hHNF4α-LBD clone or pECE-SV40-Gal4-VP16 for control experiments. Five hours after transfection, the medium was changed to Opti-MEM supplemented with penicillin (100 U/mL), streptomycin (100 μg/mL), now additionally containing 0.1% DMSO (0.2% in the primary screen) and the respective test compounds or 0.1% DMSO (0.2% in the primary screen) alone as the untreated control. In the primary screening, the core set of the Prestwick Drug Fragment Library (Prestwick Chemical, Illkirch, France) was tested at 50 µM concentration in two biologically independent repeats. In the follow-up and dose-response profiling, each concentration was tested in duplicates in at least three biologically independent repeats. Following overnight (12−14 h) incubation with the test compounds, cells were assayed for luciferase activity using Dual-Glo™ luciferase assay system (Promega) according to the manufacturer’s protocol. Luminescence was measured with a Tecan Spark 10M luminometer (Tecan Group Ltd., Männedorf, Switzerland). […] Fold activation was obtained by dividing the mean RLU of test compounds at a respective concentration by the mean RLU of untreated control.

[1] = target: T1, recombinant HNF4α LBD protein (Homo sapiens, UniProt P41235); test: Isothermal titration calorimetry (ITC); type: binding; settings: for Kd: 25 °C, protein 10–20 µM titrated with ligand 50–200 µM, read-out: HNF4α LBD Binding (Kd); for n (ITC binding model): Figure 4
T1 construct: The LDB domain of HNF4α (aa. 148–377) subcloned into pNIC28-Bsa4; His6 (N); made in house; host or cells: E. coli Rosetta
T1 sequence (P41235 148-377): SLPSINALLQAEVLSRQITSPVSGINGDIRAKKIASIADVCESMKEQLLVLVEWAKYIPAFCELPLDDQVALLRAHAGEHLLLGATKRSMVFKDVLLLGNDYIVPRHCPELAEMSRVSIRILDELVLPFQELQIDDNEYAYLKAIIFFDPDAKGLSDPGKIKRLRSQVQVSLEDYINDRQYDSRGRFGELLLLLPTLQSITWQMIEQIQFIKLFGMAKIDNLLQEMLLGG
Procedure: The recombinant protein harboring an N-terminal His6 tag was initially purified by Ni^2+-affinity chromatography. Size exclusion chromatography was performed using Superdex S75 column (GE Healthcare, Chicago, IL, USA.), and the pure protein was stored in a buffer containing 20 mM 4-(2-hydroxyethyl)-1-piperazineethanesulfonic acid (HEPES) pH 7.5, 200 mM NaCl, 0.5 mM tris(2-carboxyethyl)phosphine (TCEP), and 5% w/v glycerol.
Isothermal titration calorimetry was performed on an Affinity ITC (TA Instruments, New Castle, DE, USA). The instrument was equilibrated to 25 °C and the stirring rate was set to 75 rpm. HNF4α buffer (20 mM HEPES pH 7.5, 200 mM NaCl, 0.5 mM TCEP, 5% w/v glycerol) with up to 1% DMSO (final concentration) was used for ITC. The recombinant HNF4α LBD protein (10–20 µM, 172 µL) was titrated with fragments (4, 6, 7, 9, 10; 50–200 µM; dissolved in the same buffer). A total of 20-30 injections with a volume of 2.5–4 µL and with an interval of 200–300 s were performed. As a control experiment, HNF4α protein was titrated with buffer, and the buffer was titrated with test compound to detect dissolution artifacts with otherwise identical experimental parameters. Data analysis was performed with NanoAnalyze^TM Software (TA Instruments, New Castle, DE, USA.) using an independent binding model.

[2] = target: T2, Gal4-HNF4α (human HNF4α LBD) (Homo sapiens, UniProt P41235); test: Hybrid Gal4-HNF4α reporter gene assay in transiently transfected HEK293T cells; type: cell-based; settings: for HNF4α Ligand Type: Gal4-HNF4α assay; for HNF4α vs. VP16 (p, t-test): significance of Gal4-HNF4α follow-up vs Gal4-VP16 control at the same concentration
T2 construct: uniprot entry: P41235-1, residues 142-377; expressed in transfected cells; host or cells: HEK293T
T2 sequence (P41235 142-377): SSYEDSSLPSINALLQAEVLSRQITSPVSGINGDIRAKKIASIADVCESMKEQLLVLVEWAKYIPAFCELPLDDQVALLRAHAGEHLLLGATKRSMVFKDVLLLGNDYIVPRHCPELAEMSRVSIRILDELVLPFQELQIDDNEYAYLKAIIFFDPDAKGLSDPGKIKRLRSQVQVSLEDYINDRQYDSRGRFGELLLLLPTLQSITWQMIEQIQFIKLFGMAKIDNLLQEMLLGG

[3] = system: HNF4α-regulated gene fructose-1,6-bisphosphatase 1 (FBP1); test: FBP1 mRNA expression in HepG2 cells by qRT-PCR; type: cell-based, human; settings: HepG2, 50 µM, 8 h, vs 0.1% DMSO
[4] = target: the molecule itself; test: ITC; HNF4α LBD protein alone; dimer dissociation upon dilution (seen when inverse ITC experiments were tried); dimer to monomers
[5] = 50 µM, mean ± SD, at least four repeats

Molecule | VP16 Control (fold activation of reporter activity) (Gal4–VP16) | Kd [1] | n (ITC binding model) [1] | Primary Screen (Fold Act., 50 µM) ([2]; 50 µM, mean of two biologically independent repeats, vs. 0.2% DMSO) | Follow-up HNF4α (fold activation of reporter activity) [2, 5] | HNF4α Ligand Type [2] | HNF4a-screening_activity_(mean_of_n=2) ([2]; Table S1, primary screening, 50 µM) | EC50 ([2]; dose-response, mean ± SD, at least four repeats, read-out: Validated HNF4α Modulation EC50) | Validated HNF4α Modulation maximum fold act. ([2]; maximum fold increase in reporter activity relative to 0.1% DMSO) | HNF4α vs. VP16 (p, t-test) [2] | FBP1 mRNA expression [3] | IC50 ([2]; dose-response, inverse agonism, mean ± SD, read-out: Validated HNF4α Modulation IC50) | binding result [4]
Nc1ncns1 [compound 7, Nc1ncns1] | 1.4 ± 0.1 (50 µM) fold activation | ~7 µM and 7 µM | 0.9 | 2.36 fold activation | 3.0 ± 0.3 (50 µM) fold activation | Agonist | 2.362 | 31 µM | 3.8 fold act. and 3.8 ± 0.6 fold act. | p < 0.0001 (***) | promoted FBP1 expression; also recorded: tendency to enhanced FBP1 mRNA levels |  | 
OC(c1ccc(F)cc1)c1ccc(F)cc1 [compound 10] | 1.1 ± 0.2 (50 µM) fold activation | ~1.7 µM and 1.7 µM | 1.1 |  | 0.75 ± 0.05 (50 µM) fold activation | inverse HNF4α agonism; also recorded: Inverse agonist |  |  |  | p = 0.0057 (**) | decreased FBP1 mRNA levels; also recorded: robustly decreased FBP1 expression | 24 µM | 
recombinant HNF4α LBD protein (hepatocyte nuclear factor 4α ligand-binding domain, aa. 148–377) (domain or fragment, human, UniProt P41235-1 148-377, looked up, 148-377, subcloned into pNIC28-Bsa4; UniProt entry and species are printed for the Gal4-HNF4α reporter construct, not expressly for the E. coli construct; also called NR2A1) SLPSINALLQAEVLSRQITSPVSGINGDIRAKKIASIADVCESMKEQLLVLVEWAKYIPAFCELPLDDQVALLRAHAGEHLLLGATKRSMVFKDVLLLGNDYIVPRHCPELAEMSRVSIRILDELVLPFQELQIDDNEYAYLKAIIFFDPDAKGLSDPGKIKRLRSQVQVSLEDYINDRQYDSRGRFGELLLLLPTLQSITWQMIEQIQFIKLFGMAKIDNLLQEMLLGG |  |  |  |  |  |  |  |  |  |  |  |  | binds
